Where a SMILES comes first, the peptide text is derived from it. The star is where a group is joined. Cbz = O=C(OCc1ccccc1)*
Tested on: RAW264.7
Assay: Anti-inflammatory activity against mouse RAW264.7 cells assessed as inhibition of LPS-induced NO production pretreated with compound for 2 hrs followed by LPS stimulation for 12 hrs by Griess reagent based analysis
Format: functional, cell-based

SMILES | IC50 [µM]
O=C1C[C@@H](O)[C@]23Oc4cccc5c4[C@](CC[C@@H]5O)(Oc4ccc(O)c1c42)O3 | 12.8
CC(C)C[C@@H](C=O)NC(=O)[C@H](CC(C)C)NC(=O)[C@H](CC(C)C)NC(=O)OCc1ccccc1 [MG-132] (Cbz-Leu-Leu-Leu-aldehyde) | 2.6

Further molecules by falling IC50, results first:

IC50 [µM] | SMILES
8.5 | Cc1cc2c(c(=O)o1)[C@@H]1[C@H](O2)[C@H](O)c2c(O)ccc3c2[C@@]12Oc1cccc4c1[C@](C=C[C@@H]4O)(O3)O2
5.9 | Oc1ccc2c3c1[C@@H](O)[C@H]1O[C@H]1[C@]31Oc3cccc4c3[C@](CC[C@@H]4O)(O2)O1
4.8 | Cc1cc2c(c(=O)o1)[C@@H]1[C@H](O2)[C@H](O)c2c(O)ccc3c2[C@@]12Oc1cccc4c1[C@](CC[C@@H]4O)(O3)O2

— ChEMBL document CHEMBL5233286, “Lasiodiplodiapyrones A and B, Pyrone-Preussomerin Adducts with Highly Strained Polycyclic Ring Systems from Lasiodiplodia pseudotheobromae” (J Nat Prod, 2023)
